Earlier results as cited in patent US20250268820A1 (Zambon S.p.A., priority 2020, published 2025).

What was measured:
[1] = in vivo

OC(Cn1cncn1)(Cn1cncn1)c1ccc(F)cc1F [Fluconazole]
activity against invasive aspergillosis (invasive aspergillosis): not active

CCC(C)n1ncn(-c2ccc(N3CCN(c4ccc(OCC5COC(Cn6cncn6)(c6ccc(Cl)cc6Cl)O5)cc4)CC3)cc2)c1=O (stereo not drawn) [itraconazole]
ELF exposure as fraction of the plasma concentration (healthy volunteers): approximately ⅓
concentration in the alveolar cells with respect to the plasma concentration (healthy volunteers): more than double
concentrations in bronchoalveolar lavage fluid and lung tissue in the airways versus plasma (other cases): 10 times lower

C[C@@H](c1ncncc1F)[C@](O)(Cn1cncn1)c1ccc(F)cc1F [voriconazole]
pharmacokinetic profile (Cmax and AUC versus dose) [1]: non-linear
concentration in homogenates of lung tissue versus plasma (post-mortem studies, treated patients): comparable to those measured in the plasma
